From patent US7858738B2, “Synthetic human peptides and pharmaceutical compositions comprising them for the treatment of systemic lupus erythematosus” (Yeda Research and Development Co., Ltd., priority 2001, dated 2010)

Legend:
PBL of SLE patients = assay: Proliferative response of PBL of SLE patients to the human 16/6Id mAb; format: cell-based; details: PBL of one SLE patient; FIG. 7; reversed murine peptides as controls
Method: (§1) Induction and treatment of experimental SLE. In order to induce experimental SLE, BALB/c mice were immunized with 1-2 μg of the human mAb 16/6Id and boosted 3 weeks later. For the prevention of experimental SLE, mice were given hCDR1 or hCDR3 (mCDR1 or revmCDR1 as control peptide in Example 12) intravenously (i.v.) or s.c. concomitant with the immunization, and were injected weekly thereafter for 5 weeks. Treatment of an established disease started three and a half months following disease induction with the 16/6Id, when clinical manifestations were already observed. In Example 12, mice received 10 weekly injections (i.v. or s.c.) of mCDR1 or revmCDR1 at a dose of 100 μg/mouse. Prevention and treatment of SLE-like disease in (NZB×NZW)F1 mice with the hCDR1 or mCDR1 peptide. For prevention of SLE, mice at the age of 2 months, before disease manifestations are observed, were injected s.c. with hCDR1 (or mCDR1 in Example 12, 250 μg/mouse) once a week for 10 weeks. To treat an established disease, mice at the age of 5-7 months were injected with hCDR1 (in Example 12, mCDR1 s.c., 250 μg/mouse) once a week for 10 weeks. Proliferative Responses. PBL were isolated from heparinized venous blood by Ficoll-Hypaque (Pharmacia) density-gradient centrifugation. All assays were performed, in triplicate, in flat-bottomed microtiter plates (Falcon, Becton Dickinson, Oxmard, Calif., USA) in which 2×10^5 PBL were cultured in enriched RPMI-1640 as described (Dayan et al., 2000). The PBL were exposed to various concentrations (0.1-40 μg/well) of the human anti-DNA 16/6Id mAb with and without the addition of the various CDR-based peptides at a concentration of at least 10-fold excess over that of the 16/6Id. Phytohemagglutinin (PHA; 2 μg/well) was used as a control for culture conditions at each experiment. The cultures were incubated in 7.5% CO2 at 37° C. for 6 days. Eighteen hours before the cells were harvested, [^3H]-thymidine (0.5μ Ci of 5 Ci/mmol) (Nuclear Research Center, Negev, Israel) was added to all cultures. Results are expressed as the mean thymidine incorporation in counts per minute (CPM) of triplicate culture±SD, or as stimulation index (S.I.; the ratio of mean CPM at the optimal concentration of the human 16/6Id to the mean CPM in the presence of medium alone). A S.I.≧2 was considered a positive response (Dayan et al., 2000). Inhibition (the ratio of mean CPM in the presence of the 16/6Id and various CDR-based peptides to the mean CPM with the 16/6Id without the CDR-based peptide) above 50% was considered positive. Induction of Cytokine Production. Mice that were immunized with the human 16/6Id mAb and either treated or not with the CDR-based peptide, were killed at different periods during or after treatment with the peptide. Splenocytes and lymph node cells (LNC) were harvested and incubated (5×10^6/ml) in the presence of the 16/6Id. Supernatants were collected after 48 and 72 h. Assessment of Cytokines in the Supernatants. Supernatants were collected 48 hours following the initiation of the cultures and stored at −70° C. Measurements of IL-2, IL-10, IFN-γ, and TNF-α were performed by ELISA by using the relevant standards, capture and detecting Abs (Pharmingen) according to the manufacturer's instructions. TGF-β was determined by an ELISA. Briefly, plates were coated with the recombinant human TGF-β1 sRIII/Fc chimera (R & D Systems Inc., Minneapolis, Minn., USA), and the second Ab used was the biotinylated anti-human TGF-β1 antibody (R & D Systems Inc.). The substrate solution used was TMB color Reagent (Helix Diagnostics, West Sacramento, Calif.), and enzyme activity was evaluated by using 570- and 630-nm filters. Detection of SLE-Associated Clinical and Pathological Manifestations. Proteinuria was measured semiquantitatively by using Combistix kit (Ames Division, Bayer Diagnostics, Newbury, U.K.). White blood cells (WBC, for leukopenia) were counted after a 10-fold dilution of heparinized blood in distilled water containing 1% acetic acid (vol/vol). […]

(NZB×NZW)F1 mice [1] = assay: Transfer of splenocytes of peptide-treated mice into (NZB×NZW)F1 mice with full-blown disease; format: in vivo; details: Table 14 (repeat experiment), recipients of 20 × 10^6 spleen cells from treated mice
Source text: It was of importance to investigate whether the beneficial effects of treatment with hCDR1, that are manifested by the down-regulation of disease manifestations, can be transferred by spleen cells of treated mice. To this end, we have performed an experiment in which 8-month old (NZB×NZW)F1 mice, that suffer already from the full-blown lupus-like disease, were divided into 2 groups. Group 1 was not treated and mice of group 2 were transferred with 20×10^6 spleen cells of 3-month old (NZB×NZW)F1 mice that were injected 3 times (s.c., every other day) with 300 μg/mouse of hCDR1. All splenocytes were injected intraperitoneally. Mice were tested for anti-dsDNA autoantibody production, disease manifestations, and were sacrificed 4 weeks after cell transfer.
The experiment was repeated a few more times using revhCDR1 as control.

BALB/c mice = assay: Treatment of 16/6Id-induced experimental SLE in BALB/c mice; format: in vivo; details: Table 12, 300 μg/mouse weekly
Method: as §1

(NZB×NZW)F1 mice [2] = assay: Treatment of established SLE-like disease in (NZB×NZW)F1 mice; format: in vivo; details: 300 μg/mouse, age 7 months
Method: as §1

Sequence: SGQGWYDMAYPEWLFRACYY (Synthetic peptide prepared in reversed order of SEQ ID NO 3.) [revmCDR3, control peptide synthesized in the reversed order of mCDR3, reference compound]
- inhibition of the proliferative responses of PBL to human 16/6Id mAb (PBL of SLE patients): failed to inhibit significantly

Sequence: GIWEEGKGPPQRIWSWYYG (Synthetic peptide prepared in the reversed order of SEQ ID NO 6.) [revhCDR1, control peptide synthesized in the reversed order of hCDR1, reference compound]
- I.C.D ± SEM ((NZB×NZW)F1 mice [1]; non-treated 2.3 ± 0.26): 1.7 ± 0.23
- Proteinuria g/L ± SEM ((NZB×NZW)F1 mice [1]; non-treated 10.9 ± 3.05): 5.38 ± 2.34 g/L
- Anti-dsDNA antibodies 1:1250, Mean ± SD (BALB/c mice; 16/6Id alone 0.47 ± 0.3): 0.35 ± 0.3
- Proteinuria g/l, Mean ± SD (BALB/c mice; 16/6Id alone 0.58 ± 0.34): 0.8 ± 0.3 g/L
- Anti-16/6 Id antibodies 1:10000, Mean ± SD (BALB/c mice; 16/6Id alone 0.89 ± 0.1): 0.95 ± 0.13
- Intensity of ICD in kidneys, Mean ± SD (BALB/c mice; 16/6Id alone 1.6 ± 0.55): 0.85 ± 0.75
- WBC/mm^3, Mean ± SD (BALB/c mice; 16/6Id alone 2800 ± 300): 4180 ± 831 /mm^3
- Proteinuria g/L ± SEM ((NZB×NZW)F1 mice [2]; following treatment No 5, untreated 2.65 ± 1.76): 6.94 ± 2.53 g/L
- Proteinuria g/L ± SEM ((NZB×NZW)F1 mice [2]; following treatment No 7, untreated 3.89 ± 2.73): 6.76 ± 2.91 g/L
- Proteinuria g/L ± SEM ((NZB×NZW)F1 mice [2]; following treatment No 9, untreated 7.55 ± 3.95): 5.99 ± 3.08 g/L
